Read-outs that look alike come from different tables or passages of the source. Marks after values point to notes of the source that are not given here.
Key:
TvxNT3 = TvxNT3 (Trypanosoma vivax, UniProt F9WV62); test: cell-based; format: cell-based; conditions: for remaining activity at 100 µM: read-out: [3H]-adenosine uptake remaining in presence of inhibitor
From the text: The information for the T. congolense adenosine transporter (TcoAT1) and four putative T. vivax nucleoside transporters was obtained in the TritrypDB (tritrypdb.org/tritrypdb) genome database. Primers were designed to flank each gene upstream of the 5′ end (forward) and downstream of the 3′ end (reverse) as described (primer sequences in Supplementary Table S2). Following amplification from the genomic DNA of T. congolense or T. vivax, DNA for each extracted gene was ligated into the pNUS-HcN expression vector doubly digested with NdeI using the NEBuilder kit according to the manufacturer’s instructions (New England Biolabs). Construct was transformed into competent E. coli cells, and ligation was confirmed by restriction enzyme digestion of isolated plasmid DNA followed by Sanger sequencing (Source BioScience, Nottingham, UK). Confirmed plasmids were then transfected into L. mexicana cell line in which both NT1 and NT2 were doubly knocked out (SUPKO) and derived from L. mexicana Cas9 [64] as described. Clones grown in medium containing 50 μg/mL neomycin (G418) were collected for further confirmation by PCR with genomic DNA using a forward primer of the transporter gene and a reverse primer of the plasmid.
(§1) Uptake assays using radiolabeled trypanocides and/or nucleosides were carried out as described previously. Briefly, parasite cultures were harvested, washed twice in assay buffer (33 mM HEPES, 98 mM NaCl, 4.6 mM KCl, 0.5 mM CaCl2, 0.07 mM MgSO4, 5.8 mM NaH3PO4, 0.03 mM MgCl2, 23 mM NaHCO3, 14 mM D-glucose, pH 7.3), then resuspended and adjusted to a density of 1 × 10^8 cells/mL in assay buffer. The radiolabeled permeant in the presence or absence of different concentrations of potential inhibitors reconstituted in 100 μL assay buffer was deposited on top of 250 μL oil mix in microcentrifuge tubes; 1 × 10^7 parasites in 100 μL assay buffer were added to the tube and incubated for a pre-determined interval. The reaction was stopped by the addition of 1 mL of a high concentration of ice-cold unlabeled substrate in assay buffer (‘stop solution’) and centrifugation, or by immediate centrifugation at […] as appropriate. The microcentrifuge tubes were flash-frozen, and the bottom of each tube containing the cell pellet was cut off and transferred to a scintillation vial. Cell pellets were lysed in 2% SDS, after which scintillation fluid (Scintlogic U, Lablogic) was added, followed by overnight incubation in the dark. Scintillation was measured in a 300SL (Hidex) scintillation counter (Hidex). All the assays were conducted in triplicate and analysis was carried out using Microsoft Excel and GraphPad Prism. All kinetic parameters were obtained on at least 3 separate occasions.
The dose-dependent uptake assay allowed for the affinity of nucleoside analogs to different nucleoside transporters to be determined by measuring the extent to which the analogs compete with and inhibit the uptake of radiolabel adenosine. This allowed for the determination of biochemical parameters such as Km and Vmax through the application of the Michaelis–Menten equation V0 = Vmax([substrate]/([substrate] + Km)). The 50% Inhibitory Concentration (IC50) of the purines and pyrimidines and their analogs was determined from non-linear regression to sigmoid curves with variable slope (Prism 8), and the IC50 of the inhibitor and the Km of the labeled permeant were then used to calculate the inhibition constant (Ki) of the analogs through the Cheng–Prusoff equation: Ki = IC50/(1 + (L/Km)), where L denotes the radiolabel concentration. The calculated Ki was in turn used to determine the Gibbs free energy (ΔG^0) of the inhibitor–transporter interaction using the equation: ΔG^0 = -RTln(Ki), where R represents the gas constant and T symbolizes the absolute temperature in Kelvin [104].

TcoAT1 [1] = format: cell-based, Trypanosoma congolense; conditions: for ΔG0: Gibbs free energy of binding, from Km or Ki; for Ki: 10 s, IC50 converted to Ki, read-out: Ki on the transport of [3H]-adenosine
Outline: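 Transporter genes were expressed in an L. mexicana line lacking NT1 and NT2 (SUPKO), and 1 × 10^7 cells in HEPES/bicarbonate buffer pH 7.3 took up radiolabeled permeant through an oil layer, with or without inhibitor. Uptake was stopped with ice-cold unlabeled substrate or by centrifugation, and pellets were counted. IC50 against radiolabeled adenosine was converted to Ki by Cheng–Prusoff using the permeant Km.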

TbNT10 = tested on: TbNT10; design: method as in Al-Salabi et al. [40]; conditions: called Km values; ref Al-Salabi et al. [40]; cited from earlier work
[2] = tested on: T. congolense adenosine transporter; test: [3H]-adenosine uptake and its inhibition in T. congolense IL3000 bloodstream forms; format: cell-based, Trypanosoma congolense; conditions: for ΔG0, Gibbs free energy of interaction: calculated from Km or Ki; for Ki: 30 s, IC50 converted to Ki, read-out: Ki on the transport of [3H]-adenosine
Outline: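 Bloodstream-form T. congolense IL3000 (1 × 10^7 cells) in HEPES/bicarbonate buffer pH 7.3 took up [3H]-adenosine over a set interval, with or without inhibitor, ending by ice-cold unlabeled substrate stop or centrifugation through oil. Pellet radioactivity gave IC50 by sigmoid fit; Ki followed by Cheng–Prusoff using adenosine Km.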

[3] = tested on: T. b. brucei P1 (TbP1/NT2); conditions: cited from earlier work
[4] = tested on: human embryonic kidney (HEK) cells; test: Resazurin toxicity assay on human embryonic kidney cells; format: cell-based
Experimental: (§2) EC50 values were determined by plotting to an equation for a sigmoid curve with variable slope (GraphPad Prism 8). All values were the average of at least three independent determinations on different days.

[5] = as above; format: cell-based; conditions: human
Experimental: as §2

T. equiperdum = tested on: T. equiperdum; design: method as in Hulpia et al. [38]; conditions: compound marked *; ref Hulpia et al. [38]; cited from earlier work
T. vivax = tested on: T. vivax; design: method as in Mabille et al. [69]; conditions: added for comparison only; ref Mabille et al. [69]; cited from earlier work
T. congolense 6C3 [6] = test: microbe, parasite or virus in culture; format: cell-based, Trypanosoma congolense; conditions: for T. congolense 6C3 RF: resistance factor = EC50 (test strain)/EC50(control strain)
Experimental: as §2

T. congolense IL3000 [7] = tested on: T. congolense IL3000; design: method as in Hulpia et al. [38]; conditions: values marked *; ref Hulpia et al. [38]; cited from earlier work
T. congolense 6C3 [8] = tested on: T. congolense 6C3; design: method as in Hulpia et al. [38]; conditions: values marked *; ref Hulpia et al. [38]; cited from earlier work
T. evansi = tested on: T. evansi; design: method as in Hulpia et al. [38]; conditions: compound marked *; ref Hulpia et al. [38]; cited from earlier work
T. congolense IL3000 BSF = test: Nucleus/kinetoplast configuration (DAPI) of T. congolense exposed to drug; format: cell-based, Trypanosoma congolense; conditions: 2× or 5× EC50, 8 h
Experimental: To assess the effect of the drug on the cellular morphology and configuration of nuclei and kinetoplasts, treated cells were collected after incubation period, fixed, DAPI-treated and viewed under an Olympus IX71 DeltaVision Core System microscope (Applied Precision, GE) using the SoftWoRx suite 2.0 software (Applied Precision, GE). At least 300 cells were scored per slide for the number of kinetoplasts (K) and nuclei (N) as 1N1K, 1N2K, 2N2K, MKMN (M = many) and ‘others’ (aberrant N/K distribution).

BSF T. congolense = test: Manual cell count of T. congolense cultures exposed to drug; format: cell-based, Trypanosoma congolense
Experimental: For the direct assessment of test compounds on parasite growth, a manual cell count of cultures grown in the presence or absence of test drugs was carried out to determine the effect of test drugs on the multiplication rate of the parasites as described. The cells were adjusted to the required density in 2 mL of the appropriate medium with or without the drug/compound of interest, in a 24-well plate, followed by incubation under standard conditions. The cells were then manually counted at intervals with a Neubauer cell chamber using a phase-contrast light microscope (Axioscope, Zeiss, Jena, Germany).

T.b.b. B48 [9] = tested on: T.b.b. B48; design: method as in Hulpia et al. [38]; conditions: compound marked *; ref Hulpia et al. [38]; cited from earlier work
L. mexicana SUPKO = test: microbe, parasite or virus in culture; format: cell-based, Leishmania mexicana
Outline: (§3)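 Sigmoid curve (variable slope) fitted to obtain EC50. At least 3 independent determinations on different days, averaged.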

L. mexicana SUPKO+TcoAT1 = test: microbe, parasite or virus in culture; format: cell-based, Leishmania mexicana
Outline: as §3

L. mexicana SUPKO+TvxNT3 = test: microbe, parasite or virus in culture; format: cell-based, Leishmania mexicana
Outline: as §3

T. congolense IL3000 [10] = test: Alamar Blue (resazurin) assay, T. congolense IL3000; format: cell-based, Trypanosoma congolense; conditions: Trypanosoma congolense; BSF, resazurin; read-out: T. congolense IL3000 EC50
Experimental: as §2

[11] = tested on: L. mexicana expressing TbAQP2; design: method as in PMID 24235095; conditions: cited from earlier work
TcoAT1 [12] = test: Uptake of [3H]-pentamidine and [3H]-diminazene in SUPKO+TcoAT1 versus SUPKO; format: cell-based, Trypanosoma congolense; conditions: 25 nM [3H]-pentamidine or 50 nM [3H]-diminazene, SUPKO+TcoAT1 vs SUPKO
Experimental: as §1, with “All the assays were conducted in triplicate and analysis was carried out using Microsoft Excel and GraphPad Prism. All kinetic parameters were obtained on at least 3 separate occasions.” left out

T.b.b. B48 [13] = test: Alamar Blue (resazurin) assay, T. b. brucei B48; format: cell-based, Trypanosoma brucei brucei; conditions: Trypanosoma brucei, read-out: T.b.b. B48 EC50
Experimental: as §2

L. mexicana Cas9 = test: Resazurin drug sensitivity assay, LmexCas9; format: cell-based, Leishmania mexicana; conditions: Leishmania mexicana, read-out: LmexCas9 EC50
Outline: as §3

[14] = Resistance Factor relative to SUPKO

TvxNT3, sequence (F9WV62 entry or part of it): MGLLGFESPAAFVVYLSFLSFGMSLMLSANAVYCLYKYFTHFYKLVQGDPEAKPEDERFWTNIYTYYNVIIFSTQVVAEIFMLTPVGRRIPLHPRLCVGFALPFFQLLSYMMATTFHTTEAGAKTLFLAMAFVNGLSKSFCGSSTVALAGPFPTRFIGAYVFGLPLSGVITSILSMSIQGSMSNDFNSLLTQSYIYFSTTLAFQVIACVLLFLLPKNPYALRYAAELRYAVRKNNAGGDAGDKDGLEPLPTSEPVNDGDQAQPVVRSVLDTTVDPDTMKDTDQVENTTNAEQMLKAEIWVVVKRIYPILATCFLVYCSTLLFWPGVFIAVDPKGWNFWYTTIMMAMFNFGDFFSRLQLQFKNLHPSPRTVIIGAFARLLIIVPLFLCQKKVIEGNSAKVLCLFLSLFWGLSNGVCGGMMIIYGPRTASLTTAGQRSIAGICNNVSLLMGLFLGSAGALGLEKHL

SMILES: Nc1ncnc2c1ncn2[C@@H]1O[C@H](CO)[C@@H](O)[C@H]1O [Adenosine]
- level of uptake of adenosine (TvxNT3; 50 nM [3H]-adenosine, SUPKO+TvxNT3): 3.9 × 10^−3 pmol(10^7 cells)^−1s^−1
- remaining activity at 100 µM (TvxNT3): < 25%
- Km (TcoAT1 [1]; 0.05 µM [3H]-adenosine, 10 s incubation): 0.42 ± 0.03 µM
- ΔG0 (TcoAT1 [1]): -8.7 kcal/mol
- Km (TbNT10): 0.41 µM
- Km ([2]; 0.05 µM [3H]-adenosine, 30 s incubation, bloodstream forms): 0.48 ± 0.03 µM
- rate of adenosine uptake ([2]; 50 nM [3H]-adenosine, cultured IL3000): 0.014 ± 0.0037 pmol(10^7 cells)^−1s^−1
- Vmax of adenosine uptake ([2]; 30 s incubation): 0.11 ± 0.02 pmol(10^7 cells)^−1s^−1
- ΔG0, Gibbs free energy of interaction [2]: -8.6 kcal/mol
- Km ([3]; T. b. brucei bloodstream forms, read-out: Tbb P1 Km for adenosine): 0.36 ± 0.05 µM
- Tbb P1 ΔG0 [3]: -8.8 kcal/mol

SMILES: Nc1ncnc2c1c(Cl)cn2[C@@H]1O[C@H](CO)C[C@H]1O [FH8470, 7-chloro-7-deaza-3′-deoxyadenosine]
- SI T. congolense ([4]; selectivity index = EC50 (HEK cells)/EC50 (T. congolense)): 9800
- SI T. equiperdum ([4]; selectivity index = EC50 (HEK cells)/EC50 (T. equiperdum)): 21,100
- SI T. evansi ([4]; selectivity index = EC50 (HEK cells)/EC50 (T. evansi)): 6830
- EC50 [5]: 12 ± 0.32 µM
- Ki (TcoAT1 [1]; 0.05 µM [3H]-adenosine): 60.6 ± 10.7 µM
- ΔG0 (TcoAT1 [1]): -5.76 kcal/mol
- EC50 (T. equiperdum): 0.00057 ± 8e-05 µM
- EC50 (T. vivax): 0.096 ± 0.082 µM
- T. congolense 6C3 RF (T. congolense 6C3 [6]): 0.53 ^a
- EC50 (T. congolense IL3000 [7]): 0.0012 ± 0.0002 µM
- EC50 (T. congolense 6C3 [8]): 0.00066 ± 3e-05 µM
- EC50 (T. evansi): 0.0018 ± 0.0002 µM
- Ki ([2]; 0.05 µM [3H]-adenosine): 17.5 ± 3.4 µM
- ΔG0, Gibbs free energy of interaction [2]: -6.48 kcal/mol
- reduction of the number of cells with 2N2K configuration (T. congolense IL3000 BSF): 40–50 % of untreated control
- time to killing of the parasites (BSF T. congolense; 5 × EC50, exposure for 48 h or continuously): ≤ 72 h
- time to death of the cells (BSF T. congolense; 15 × EC50, short exposure (8 h), washed out or continuous): ≤ 48 h
- EC50 (T.b.b. B48 [9]): 0.0068 ± 0.0009 µM

SMILES: O=c1[nH]cnc2c1ncn2[C@@H]1O[C@H](CO)[C@@H](O)[C@H]1O [Inosine]
- remaining activity at 100 µM (TvxNT3; 100 µM inhibitor, 50 nM [3H]-adenosine): < 25%
- δ(ΔG0) (TvxNT3; difference in ΔG0 relative to the parent purine (adenosine or inosine)): 1.21 kcal/mol
- Ki (TcoAT1 [1]; 0.05 µM [3H]-adenosine): 0.55 ± 0.09 µM
- ΔG0 (TcoAT1 [1]): -8.53 kcal/mol
- δ(ΔG0) (TcoAT1 [1]; loss of Gibbs free energy of binding relative to the parent nucleoside): 0.163 kcal/mol
- Km (TbNT10): 0.53 µM
- Ki ([2]; 0.05 µM [3H]-adenosine): 0.27 ± 0.02 µM
- ΔG0, Gibbs free energy of interaction [2]: -8.96 kcal/mol
- Ki ([3]; T. b. brucei bloodstream forms, read-out: Tbb P1 Ki): 0.44 ± 0.1 µM
- Tbb P1 ΔG0 [3]: -8.68 kcal/mol

SMILES: N=C(N)c1ccc(OCCCCCOc2ccc(C(=N)N)cc2)cc1 [Pentamidine, reference compound]
- EC50 (L. mexicana SUPKO; Leishmania mexicana, read-out: SUPKO EC50, resazurin, promastigotes): 1.83 ± 0.29 µM
- SUPKO RF (Cas9) (L. mexicana SUPKO; Resistance Factor = EC50(SUPKO)/EC50(Cas9)): 1.28
- EC50 (L. mexicana SUPKO+TcoAT1; Leishmania mexicana, read-out: SUPKO+TcoAT1 EC50): 1.73 ± 0.2 µM
- SUPKO+TcoAT1 RF (SUPKO) (L. mexicana SUPKO+TcoAT1; [14]): 1.1
- EC50 (L. mexicana SUPKO+TvxNT3; Leishmania mexicana, read-out: SUPKO+TvxNT3 EC50): 2.31 ± 0.18 µM
- SUPKO+TvxNT3 RF (SUPKO) (L. mexicana SUPKO+TvxNT3; [14]): 0.77
- EC50 (T. congolense 6C3 [6]; Trypanosoma congolense, read-out: T. congolense 6C3 EC50): 0.44 ± 0.15 µM
- T. congolense 6C3 RF (T. congolense 6C3 [6]): 0.79
- EC50 (T. congolense IL3000 [10]): 0.55 ± 0.11 µM
- sensitization upon expression of TbAQP2 [11]: 40 fold
- effect of the expression of TcoAT1 on the uptake of the trypanocide (TcoAT1 [12]): no effect
- EC50 (T.b.b. B48 [13]): 0.34 ± 0.06 µM
- EC50 (L. mexicana Cas9): 1.43 ± 0.05 µM
